Several values for one entry are separate records, joined by “and”; a condition that tells them apart may be missing. Identical values can stand only once. Like-named read-outs stand apart in the source and are kept apart here.
Assays:
[1] = tested on: P. falciparum NF54-HGL, dT648M, cT648M, cT627A asexual blood stages; assay: Asexual drug-sensitivity of AcAS mutant parasites; format: cell-based, Plasmodium falciparum; set-up: key to asexual blood stages growth, dose-response: % growth; DMSO control = 100%, DHA/epoxomicin = no growth
Procedure: Replication assays were performed using a SYBR Green method as described previously. Briefly, asynchronous parasites were diluted to 0.83% parasitemia, 3% hematocrit in 30 µl medium, and added to 30 µl of diluted compounds in medium (0.1% DMSO final concentration) in black 384-wells plates. After a 72-h incubation, 30 µl of SYBR Green diluted in lysis buffer was added according to the manufacturer’s protocol (Life Technologies). Fluorescence intensity was measured on a BioTek Synergy 2 Plate Reader after 1-h incubation and was normalized to a DMSO control (100% growth) and DHA- or epoxomicin-treatment (no growth). […] Parasite survival was assessed by flow cytometry on an Accuri C6 (BD Biosciences) with BD C6 Plus software using SYBR Green and MitoTracker Deep Red FM (Life Technologies) as nuclear stain and vital dye, respectively, and data were analyzed using FlowJo (10.5.0). […] Luminescence was measured after 72 h using the Renilla-Glo(R) Luciferase Assay System (Promega E2750) and the GlomAX® Discover Multimode Microplate Reader (Promega). The luminescence values were normalized to DMSO vehicle (100% growth) and 200 nM chloroquine-treated (no growth) samples as controls.
The mutation found in selected drug-resistant parasites was verified by introducing the point mutations in AcAS (T648M and T627A) in NF54-HGL parasites using a CRISPR-Cas9 system as described previously. The oligonucleotides for the guide RNA and the donor template were cloned into a pDC2-based plasmid containing a Cas9 and guide cassette, using the BbsI and EcoRI/AatII restriction sites, respectively. Donor DNA was amplified by (overlap-extension) PCR amplification from genomic P. falciparum DNA and oligonucleotides for the guide RNAs were ordered (Sigma-Aldrich). The correct sequence and integration of both inserts were confirmed by Sanger Sequencing.

[2] = tested on: P. falciparum T648M / T627A AcAS mutant gametocytes; format: cell-based, Plasmodium falciparum
Procedure: Gametocyte viability assays on NF54-HGL parasites were performed using an adapted high-throughput protocol as previously described[15],[64]. In short, asexual blood-stage parasite cultures were set up at 1% parasitemia in a semi-automated shaker system at 5% hematocrit. From day four until day eight or nine, parasites were treated with 50 mM N-acetyl glucosamine to eliminate all asexual blood-stage parasites. Subsequently, gametocytes were isolated by a Percoll density gradient centrifugation. At day 11, gametocytes were seeded (5,000 per well) in 30 µl in white 384-well plates containing 30 µl of compounds diluted in medium (0.1% DMSO). After a 72-h incubation, 30 µl of ONE-Glo reagent (Promega) was added according to manufacturer’s protocol and luminescence was quantified using the BioTek Synergy 2 Plate reader. Values were normalized to DMSO- and epoxomicin or dihydroartemisinin-treated controls.

[3] = cT627A, Log concentration (M) -7.5
[4] = cT627A, Log concentration (M) -8
[5] = cT627A, Log concentration (M) -8.5
[6] = cT627A, Log concentration (M) -9
[7] = cT627A, Log concentration (M) -9.5
[8] = cT627A, Log concentration (M) -10
[9] = cT648M, Log concentration (M) -6
[10] = cT648M, Log concentration (M) -6.5
[11] = cT648M, Log concentration (M) -7
[12] = cT648M, Log concentration (M) -7.5
[13] = cT648M, Log concentration (M) -8
[14] = cT648M, Log concentration (M) -8.5
[15] = cT648M, Log concentration (M) -9
[16] = cT648M, Log concentration (M) -9.5
[17] = cT648M, Log concentration (M) -10
[18] = dT648M, Log concentration (M) -6
[19] = dT648M, Log concentration (M) -6.5
[20] = dT648M, Log concentration (M) -7
[21] = dT648M, Log concentration (M) -7.5
[22] = dT648M, Log concentration (M) -8
[23] = dT648M, Log concentration (M) -8.5
[24] = dT648M, Log concentration (M) -9
[25] = dT648M, Log concentration (M) -9.5
[26] = dT648M, Log concentration (M) -10

CC(CNC(=O)C(O)C(C)(C)CO)NC(=O)CCc1ccccc1F (stereo in doubt) [MMV689258]
asexual blood stages growth, dose-response ([1]; NF54-HGL, Log concentration (M) -9): 76.1 and 93.6 and 100.55 | asexual blood stages growth, dose-response ([1]; NF54-HGL, Log concentration (M) -9.5): 86.25 and 83.5 and 106.05 | asexual blood stages growth, dose-response ([1]; NF54-HGL, Log concentration (M) -10): 96.25 and 97.9 and 112.35 | asexual blood stages growth, dose-response [1, 3]: 91.7 and 68.35 and 87.5 | asexual blood stages growth, dose-response [1, 4]: 98.75 and 75.4 and 102 | asexual blood stages growth, dose-response [1, 5]: 98.95 and 109.7 and 103.8 | asexual blood stages growth, dose-response [1, 6]: 93.85 and 110.4 and 101.9 | asexual blood stages growth, dose-response [1, 7]: 95.15 and 100.65 and 102.3 | asexual blood stages growth, dose-response [1, 8]: 92.1 and 102.75 | asexual blood stages growth, dose-response [1, 9]: 85.3 and 76.95 and 95.6 | asexual blood stages growth, dose-response [1, 10]: 97.25 and 93 and 109.55 | asexual blood stages growth, dose-response [1, 11]: 112 and 98.45 and 99.1 | asexual blood stages growth, dose-response [1, 12]: 108.7 and 101 and 101.4 | asexual blood stages growth, dose-response [1, 13]: 108.05 and 99.35 and 97.85 | asexual blood stages growth, dose-response [1, 14]: 99.1 and 110.25 and 104.05 | asexual blood stages growth, dose-response [1, 15]: 88.2 and 96.6 and 106.85 | asexual blood stages growth, dose-response [1, 16]: 95.65 and 97.35 and 100.3 | asexual blood stages growth, dose-response [1, 17]: 86.35 and 97.9 and 99.6 | asexual blood stages growth, dose-response [1, 18]: 86.55 | asexual blood stages growth, dose-response [1, 19]: 89.25 | asexual blood stages growth, dose-response [1, 20]: 95.15 | asexual blood stages growth, dose-response [1, 21]: 99.65 | asexual blood stages growth, dose-response [1, 22]: 89.85 | asexual blood stages growth, dose-response [1, 23]: 92.65 | asexual blood stages growth, dose-response [1, 24]: 97.45 | asexual blood stages growth, dose-response [1, 25]: 97 | asexual blood stages growth, dose-response [1, 26]: 99.15 | gametocyte viability, dose-response ([2]; cT627A, Log concentration (M) -6): 54.65 and 65.95 and 38.25 | gametocyte viability, dose-response ([2]; cT627A, Log concentration (M) -6.5): 66.35 and 84.15 and 69.3 | gametocyte viability, dose-response ([2]; cT627A, Log concentration (M) -7): 85 and 95.75 and 66.7 | gametocyte viability, dose-response [2, 3]: 95.85 and 91.8 and 94.3 | gametocyte viability, dose-response [2, 4]: 92.9 and 96.45 and 100.2 | gametocyte viability, dose-response [2, 5]: 84.65 and 95.2 and 101.25 | gametocyte viability, dose-response [2, 6]: 97.55 and 97.85 and 111.3 | gametocyte viability, dose-response [2, 7]: 87.2 and 101.95 and 102.75 | gametocyte viability, dose-response [2, 8]: 85.8 and 97.9 and 99.85 | gametocyte viability, dose-response [2, 9]: 103.9 and 89.5 and 90.75 | gametocyte viability, dose-response [2, 10]: 103.05 and 97.85 and 100.35 | gametocyte viability, dose-response [2, 11]: 99.3 and 92.85 and 107.7 | gametocyte viability, dose-response [2, 12]: 98.25 and 95.25 and 103.7 | gametocyte viability, dose-response [2, 13]: 84.9 and 96.6 and 106.6 | gametocyte viability, dose-response [2, 14]: 104.05 and 98.15 and 101 | gametocyte viability, dose-response [2, 15]: 97.2 and 88.65 and 97.7 | gametocyte viability, dose-response [2, 16]: 106.45 and 88.2 and 104.1 | gametocyte viability, dose-response [2, 17]: 102.75 and 101.9 and 108.55 | gametocyte viability, dose-response [2, 18]: 104.25 | gametocyte viability, dose-response [2, 19]: 95.5 | gametocyte viability, dose-response [2, 20]: 100.05 | gametocyte viability, dose-response [2, 21]: 101.95 | gametocyte viability, dose-response [2, 22]: 95.3 | gametocyte viability, dose-response [2, 23]: 102.85 | gametocyte viability, dose-response [2, 24]: 93.8 | gametocyte viability, dose-response [2, 25]: 107.4 | gametocyte viability, dose-response [2, 26]: 95.7

C[C@@H](CNC(=O)[C@H](O)C(C)(C)CO)NC(=O)c1cc(F)c(F)cc1F [MMV693183]
sensitivity of T627A AcAS mutant [1]: also resistant to MMV693183 | IC50 shift asexual ([1]; CRISPR cT648M): 49 × | IC50 shift ([1]; NF54 selected at 7 nM): 77 x | IC50 shift ([1]; selected resistant parasites vs parent, asexual growth assay): 13-77 × | IC50 shift sexual ([2]; CRISPR cT648M): > 50 × | IC50 shift gametocytes ([2]; selected resistant (dT648M) gametocytes): > 50 ×

— paper PMC9021288 (Nature Communications, 2022)
